Measurements published in the NIST ThermoML archive (doi:10.1021/je900600c).
± gives the expanded uncertainty stated by the source.

Experiment: xn = mol fraction of the nth substance listed
Conditions: 101 kPa, Liquid; for electrical conductivity: Frequency=0.0005 MHz, crison conductivimeter

## CCCCn1cc[n+](C)c1.F[B-](F)(F)F [1-butyl-3-methylimidazolium tetrafluoroborate] + O
288.15 K, x2 = 0.4954
  electrical conductivity: 1.4 ± 0.14 S/m
288.15 K, x2 = 0
  viscosity: 173.5 ± 47 mPa·s
288.15 K, x2 = 0.0476
  viscosity: 134.1 ± 29 mPa·s
288.15 K, x2 = 0.1091
  viscosity: 108.4 ± 18 mPa·s
288.15 K, x2 = 0.143
  viscosity: 89.3 ± 11 mPa·s
288.15 K, x2 = 0.2389
  viscosity: 58.2 ± 2 mPa·s
288.15 K, x2 = 0.3078
  viscosity: 45.6 ± 2.3 mPa·s
288.15 K, x2 = 0.4
  viscosity: 32.5 ± 1.7 mPa·s
288.15 K, x2 = 0.5054
  viscosity: 21.1 ± 1.1 mPa·s
288.15 K, x2 = 0.6266
  viscosity: 13.77 ± 0.75 mPa·s
288.15 K, x2 = 0.6992
  viscosity: 9.78 ± 0.55 mPa·s
288.15 K, x2 = 0.7981
  viscosity: 6.69 ± 0.39 mPa·s
288.15 K, x2 = 0.9032
  viscosity: 3.83 ± 0.25 mPa·s
298.15 K, x2 = 0
  electrical conductivity: 0.352 ± 0.035 S/m
  viscosity: 99.2 ± 15 mPa·s
298.15 K, x2 = 0.2235
  electrical conductivity: 0.785 ± 0.08 S/m
298.15 K, x2 = 0.3705
  electrical conductivity: 1.3 ± 0.13 S/m
298.15 K, x2 = 0.4835
  electrical conductivity: 1.86 ± 0.19 S/m
298.15 K, x2 = 0.4954
  electrical conductivity: 2.02 ± 0.2 S/m
298.15 K, x2 = 0.6173
  electrical conductivity: 2.75 ± 0.28 S/m
298.15 K, x2 = 0.7167
  electrical conductivity: 3.64 ± 0.36 S/m
298.15 K, x2 = 0.777
  electrical conductivity: 4.2 ± 0.42 S/m
298.15 K, x2 = 0.8168
  electrical conductivity: 4.55 ± 0.46 S/m
298.15 K, x2 = 0.8458
  electrical conductivity: 4.84 ± 0.48 S/m
298.15 K, x2 = 0.8684
  electrical conductivity: 5 ± 0.5 S/m
298.15 K, x2 = 0.8879
  electrical conductivity: 5.08 ± 0.51 S/m
298.15 K, x2 = 0.9031
  electrical conductivity: 5.09 ± 0.51 S/m
298.15 K, x2 = 0.9151
  electrical conductivity: 5.08 ± 0.51 S/m
298.15 K, x2 = 0.9245
  electrical conductivity: 5.05 ± 0.51 S/m
298.15 K, x2 = 0.9322
  electrical conductivity: 4.98 ± 0.5 S/m
298.15 K, x2 = 0.9396
  electrical conductivity: 4.84 ± 0.49 S/m
298.15 K, x2 = 0.9457
  electrical conductivity: 4.81 ± 0.48 S/m
298.15 K, x2 = 0.952
  electrical conductivity: 4.73 ± 0.48 S/m
298.15 K, x2 = 0.9572
  electrical conductivity: 4.65 ± 0.48 S/m
298.15 K, x2 = 0.9615
  electrical conductivity: 4.54 ± 0.48 S/m
298.15 K, x2 = 0.9654
  electrical conductivity: 4.41 ± 0.48 S/m
298.15 K, x2 = 0.9713
  electrical conductivity: 4.15 ± 0.41 S/m
298.15 K, x2 = 0.9801
  electrical conductivity: 3.64 ± 0.36 S/m
298.15 K, x2 = 0.9861
  electrical conductivity: 3.14 ± 0.31 S/m
298.15 K, x2 = 0.9896
  electrical conductivity: 2.68 ± 0.27 S/m
298.15 K, x2 = 0.993
  electrical conductivity: 2.11 ± 0.21 S/m
298.15 K, x2 = 0.9951
  electrical conductivity: 1.64 ± 0.16 S/m
298.15 K, x2 = 0.9961
  electrical conductivity: 1.43 ± 0.14 S/m
298.15 K, x2 = 0.9974
  electrical conductivity: 1.05 ± 0.1 S/m
298.15 K, x2 = 0.9982
  electrical conductivity: 0.788 ± 0.079 S/m
298.15 K, x2 = 0.999
  electrical conductivity: 0.475 ± 0.048 S/m
298.15 K, x2 = 0.9996
  electrical conductivity: 0.2 ± 0.02 S/m
298.15 K, x2 = 0.0476
  viscosity: 78.7 ± 7.8 mPa·s
298.15 K, x2 = 0.1091
  viscosity: 65.6 ± 3.9 mPa·s
298.15 K, x2 = 0.143
  viscosity: 55.1 ± 1.2 mPa·s
298.15 K, x2 = 0.2389
  viscosity: 37.7 ± 1.9 mPa·s
298.15 K, x2 = 0.3078
  viscosity: 30.2 ± 1.6 mPa·s
298.15 K, x2 = 0.4
  viscosity: 22.1 ± 1.2 mPa·s
298.15 K, x2 = 0.5054
  viscosity: 14.72 ± 0.79 mPa·s
298.15 K, x2 = 0.6266
  viscosity: 9.82 ± 0.55 mPa·s
298.15 K, x2 = 0.6992
  viscosity: 7.07 ± 0.41 mPa·s
298.15 K, x2 = 0.7981
  viscosity: 4.89 ± 0.3 mPa·s
298.15 K, x2 = 0.9032
  viscosity: 2.79 ± 0.2 mPa·s
308.15 K, x2 = 0.4954
  electrical conductivity: 2.61 ± 0.26 S/m
308.15 K, x2 = 0
  viscosity: 61.3 ± 2.8 mPa·s
308.15 K, x2 = 0.0476
  viscosity: 49.8 ± 2.5 mPa·s
308.15 K, x2 = 0.1091
  viscosity: 42.4 ± 2.2 mPa·s
308.15 K, x2 = 0.143
  viscosity: 36.3 ± 1.9 mPa·s
308.15 K, x2 = 0.2389
  viscosity: 25.9 ± 1.4 mPa·s
308.15 K, x2 = 0.3078
  viscosity: 21.1 ± 1.1 mPa·s
308.15 K, x2 = 0.4
  viscosity: 15.81 ± 0.85 mPa·s
308.15 K, x2 = 0.5054
  viscosity: 10.8 ± 0.6 mPa·s
308.15 K, x2 = 0.6266
  viscosity: 7.33 ± 0.43 mPa·s
308.15 K, x2 = 0.6992
  viscosity: 5.34 ± 0.33 mPa·s
308.15 K, x2 = 0.7981
  viscosity: 3.75 ± 0.25 mPa·s
308.15 K, x2 = 0.9032
  viscosity: 2.47 ± 0.18 mPa·s
318.15 K, x2 = 0.4954
  electrical conductivity: 3.25 ± 0.33 S/m
318.15 K, x2 = 0
  viscosity: 40.4 ± 2.1 mPa·s
318.15 K, x2 = 0.0476
  viscosity: 33.5 ± 1.7 mPa·s
318.15 K, x2 = 0.1091
  viscosity: 29.1 ± 1.5 mPa·s
318.15 K, x2 = 0.143
  viscosity: 25.3 ± 1.3 mPa·s
318.15 K, x2 = 0.2389
  viscosity: 18.62 ± 0.99 mPa·s
318.15 K, x2 = 0.3078
  viscosity: 15.47 ± 0.83 mPa·s
318.15 K, x2 = 0.4
  viscosity: 11.81 ± 0.65 mPa·s
318.15 K, x2 = 0.5054
  viscosity: 8.24 ± 0.47 mPa·s
318.15 K, x2 = 0.6266
  viscosity: 5.68 ± 0.34 mPa·s
318.15 K, x2 = 0.6992
  viscosity: 4.18 ± 0.27 mPa·s
318.15 K, x2 = 0.7981
  viscosity: 2.96 ± 0.21 mPa·s
318.15 K, x2 = 0.9032
  viscosity: 1.717 ± 0.15 mPa·s
